Columns and labels:
[1] = test system: renin-induced disruption of passive avoidance retention; assay: Renin-disrupted passive avoidance retention; type: in vivo, male Sprague-Dawley rats; conditions: rats; for prevention of renin-induced amnesia: co-administered with renin, IVT
Protocol: Experimentally naive male Sprague-Dawley rats […] (Charles River Breeding Laboratories, Kingston, N.Y.), weighing between 175 to 200 gm were used. The animals were housed four per cage (45.0 L×20.0 H×26.0 W cm) with free access to food and water. They were maintained on a 12 h light/dark cycle (lights on 0600 h) and at a room temperature of 22±1° C. with relative humidity of 50±10%.
The experimental sessions were conducted in a two-compartment passive avoidance box. One compartment, made of clear plastic with a perforated clear plastic floor, measured 21(L)×24.5(H)×17(W) cm and was illuminated with a 60 watt incandescent light bulb placed 36 cm above the floor. The other compartment, made of black plastic, measured 30.5(L)×20.3(H)×[…] with a floor made of 4 mm stainless steel rods spaced 1.2 cm apart. A grid floor shocker (Coulbourn Instruments) was connected to the steel rods and provided scrambled footshock. The two compartments were separated by a solenoid-operated slide door (Lafayette Instrument Co., Lafayette, Ind.). An electronic counter (Coulbourn Instruments), triggered by the opening or closing of the slide door, recorded acquisition and retention latencies (latencies were defined as the time it took an animal to enter the dark compartment).
Passive avoidance training began by placing the rat into the clear compartment of the two-compartment passive avoidance box. Following a 10 sec delay, the slide door to the dark compartment was raised. Once the rat moved completely into the dark compartment (all four paws on the shock grid floor) the slide door was lowered, and after a 10 sec delay, a 1.0 mA shock was applied to the grid floor for three sec. A second three sec shock was delivered after an additional 10 sec delay. The rats were immediately removed from the dark compartment and returned to their home cage. A retention test was given 24 h later. It proceeded in the same manner as the training session except that no shock was applied to the grid floor when the rats were provided access to the dark compartment for a maximum of 300 sec.
All drugs were administered IVT 60 minutes prior to acquisition training in a volume of 5 μl. Doses are expressed as the free base weight of each compound.

[2] = test system: mouse habituation (light to dark compartment latency); conditions: cited from earlier work
[3] = test system: ACh in the striatum and hypothalamus; conditions: acute or repeated administration; cited from earlier work
uphill avoidance = conditions: mice, acute, 30 mg/kg PO; cited from earlier work
[4] = test system: scopolamine-induced impairment of eight arm radial maze performance; conditions: 3 mg/kg IP; cited from earlier work
[5] = test system: scopolamine-induced PA amnesia; conditions: three times per day at 1, 3 and 10 mg/kg PO; cited from earlier work
[6] = test system: memory of previously learned tasks; conditions: in vivo; cited from earlier work
[7] = test system: renin-induced avoidance disruption; conditions: cited from earlier work
[8] = test system: renin-induced amnesia in a PA task; assay: PA task after IVT renin (own laboratory); type: in vivo
[9] = test system: light/dark habituation performance; conditions: subchronic treatment; cited from earlier work
[10] = test system: retention of a passive avoidance (PA) response; conditions: rats, dorsal neostriatum injection; cited from earlier work
[11] = test system: potassium-stimulated release of ACh in entorhinal cortex; conditions: in vitro, entorhinal cortex from rat brain; cited from earlier work
[12] = test system: AII in cerebrospinal fluid (CSF); conditions: renin IVT; increased from 40; cited from earlier work

## CCCc1nc(C(F)(F)F)c(C(=O)O)n1Cc1ccc(-c2ccccc2-c2nn[nH]n2)cc1 [Compound C, 2-n-propyl-1-[(2'-(lH-tetrazol-5-yl)biphenyl-4-yl)methyl]-4-trifluoromethylimidazole-5-carboxylic acid]
[1]
  prevention of renin-induced amnesia: protected against amnesia

## CCCc1nc(C(F)(F)F)c(CO)n1Cc1ccc(-c2ccccc2-c2nnn[nH]2)cc1 [Compound D, 2-n-propyl-5-hydroxymethyl-1-[(2'-(1H-tetrazol-5-yl)biphenyl-4-yl)methyl]-4-trifluoromethylimidazole]
[1]
  prevention of renin-induced amnesia: protected against amnesia

## Cc1cc(Cn2cnc3c2CC(C(=O)O)N(C(=O)C(c2ccccc2)c2ccccc2)C3)ccc1N (stereo not shown) [EXP655, 1-(4-amino-3-methylphenyl)methyl-5-diphenylacetyl-4,5,6,7-tetrahydro-1H-imidazo[4,5-c]pyridine-6-carboxylic acid]
[2]; 10.0 ng kg^-1 i.p. b.d., days 2 and 3, vs vehicle
  initial latency to move from light to dark compartment: decrease in the initial latency to move from the light to dark compartment
[2]; EXP655 10.0 ng kg^-1 i.p., scopolamine 0.25 mg kg^-1 i.p., day 6
  scopolamine-induced impairment in mice treated with EXP655: not detected
[1]
  prevention of renin-induced amnesia: less effective in preventing the amnesia

## CCOC(=O)C(CCc1ccccc1)NC(C)C(=O)N1CC2(CC3CCC2CC3)CC1C(=O)O (stereo not shown) [Hoe 288]
[3]
  ACh in the striatum and hypothalamus: significant decrease in ACh
Uphill avoidance
  performance during retention testing, uphill avoidance: improved performance during retention testing
[4]
  effect of muscarinic receptor blockade on performance: partially antagonized the effects of muscarinic receptor blockade on performance
[5]
  effect on scopolamine-induced PA amnesia: partially reversed the amnesia

## NCCCC[C@H](OP(=O)(O)CCCCc1ccccc1)C(=O)N1CCC[C@H]1C(=O)O [SQ 29852]
[6]
  effect on anticholinergic effect on performance: ameliorate, at least in part, an anticholinergic effect on performance
  effect on memory of previously learned tasks: protective effects on memory of previously learned tasks

## C[C@H](CS)C(=O)N1CCC[C@H]1C(=O)O [captopril]
[7]; IVT, prior to the renin injection
  prevention of renin-induced avoidance disruption: prevented the renin-induced avoidance disruption
[8]; IVT administration
  prevention of renin-induced amnesia in a PA task: prevented
[9]
  rate of acquisition of light/dark habituation performance: increased the rate of acquisition

## CN1[C@@H]2C[C@@H](OC(=O)[C@H](CO)c3ccccc3)C[C@H]1[C@@H]1O[C@@H]12 [scopolamine]
[2]; scopolamine 0.25 mg kg^-1 i.p., day 6
  performance following scopolamine in vehicle-treated mice (initial latency): increase in the initial latency

## NC(=O)[C@@H]1CCCN1C(=O)[C@H](Cc1cnc[nH]1)NC(=O)[C@@H]1CCC(=O)N1 [thyrotropin releasing hormone]
[10]
  effect on retention of a PA response: had no effect

## AII: Angiotensin-II (AII), a circulating hormone, now thought to act as a neuropeptide in the central nervous system (DRVYIHPF; Angiotensin-2; UniProt P01019 25-32, looked up)
[10]
  effect on retention of a PA response: disruption in retention of a PA response
[11]
  basal levels of ACh release: without effects on basal levels
  potassium-stimulated release of ACh: reduced potassium-stimulated release of ACh

## [1-sarcosine, 8-threonine]angiotensin-II
[11]
  antagonism of AII effect on ACh release: antagonized

## lysine-8-vasopressin
[10]
  effect on retention of a PA response: had no effect

B1: renin: Renin (Sigma Chemicals), a stimulator of endogenous AII biosynthesis (protein, UniProt P00797 67-406, looked up)
Renin: LTLGNTTSSVILTNYMDTQYYGEIGIGTPPQTFKVVFDTGSSNVWVPSSKCSRLYTACVYHKLFDASDSSSYKHNGTELTLRYSTGTVSGFLSQDIITVGGITVTQMFGEVTEMPALPFMLAEFDGVVGMGFIEQAIGRVTPIFDNIISQGVLKEDVFSFYYNRDSENSQSLGGQIVLGGSDPQHYEGNFHYINLIKTGVWQIQMKGVSVGSSTLLCEDGCLALVDTGASYISGSTSSIEKLMEALGAKKRLFDYVVKCNEGPTLPDISFHLGGKEYTLTSADYVFQESYSSKKLCTLAIHAMDIPPPTGPTWALGATFIRKFYTEFDRRNNRIGFALAR
[12]
  AII in cerebrospinal fluid after renin: about 5000 fmol per mL
[7]; renin into lateral ventricle (IVT)
  effect on avoidance learning: disruption of avoidance learning
[8]; renin administered IVT
  amnesia in a PA task: produces a dose-related amnesia
[1]; renin injected IVT
  memory deficit produced by renin: produces memory deficit in rats
